Data reported in the supplement of paper PMC13380429.

Key:
Conditions in all cases: 72 h
Caco-2 [1] = assay: relative viability EC50 (midpoint between 100% and the lowest measured viability); higher = less toxic
U2OS [2] = assay: as above
Calu-3 [3] = assay: as above
Caco-2 [4] = assay: cell viability relative to DMSO; higher = less toxic
U2OS [5] = assay: as above
Calu-3 [6] = assay: as above
Caco-2 [7] = assay: drug sensitivity score (DSS) for viability; higher = more toxic; extreme values may be limits of the assay
U2OS [8] = assay: as above
Calu-3 [9] = assay: as above
HepG2 [10] = assay: relative viability EC50 (midpoint between 100% and the lowest measured viability); higher = less toxic
HepG2 [11] = assay: cell viability relative to DMSO; higher = less toxic
HepG2 [12] = assay: drug sensitivity score (DSS) for viability; higher = more toxic; extreme values may be limits of the assay
Vero E6 [13] = assay: relative viability EC50 (midpoint between 100% and the lowest measured viability); higher = less toxic
Vero E6 [14] = assay: cell viability relative to DMSO; higher = less toxic
Vero E6 [15] = assay: drug sensitivity score (DSS) for viability; higher = more toxic; extreme values may be limits of the assay

| SMILES | relative viability EC50 (Caco-2 [1]) [µM] | relative viability EC50 (U2OS [2]) [µM] | relative viability EC50 (Calu-3 [3]) [µM] | cell viability (Caco-2 [4]; 1 nM) [%] | cell viability (Caco-2 [4]; 10 nM) [%] | cell viability (Caco-2 [4]; 100 nM) [%] | cell viability (Caco-2 [4]; 1000 nM) [%] | cell viability (Caco-2 [4]; 10000 nM) [%] | cell viability (U2OS [5]; 1 nM) [%] | cell viability (U2OS [5]; 10 nM) [%] | cell viability (U2OS [5]; 100 nM) [%] | cell viability (U2OS [5]; 1000 nM) [%] | cell viability (U2OS [5]; 10000 nM) [%] | cell viability (Calu-3 [6]; 1 nM) [%] | cell viability (Calu-3 [6]; 10 nM) [%] | cell viability (Calu-3 [6]; 100 nM) [%] | cell viability (Calu-3 [6]; 1000 nM) [%] | cell viability (Calu-3 [6]; 10000 nM) [%] | drug sensitivity score (Caco-2 [7]) | drug sensitivity score (U2OS [8]) | drug sensitivity score (Calu-3 [9]) | relative viability EC50 (HepG2 [10]) [µM] | cell viability (HepG2 [11]; 1 nM) [%] | cell viability (HepG2 [11]; 10 nM) [%] | cell viability (HepG2 [11]; 100 nM) [%] | cell viability (HepG2 [11]; 1000 nM) [%] | cell viability (HepG2 [11]; 10000 nM) [%] | drug sensitivity score (HepG2 [12]) | relative viability EC50 (Vero E6 [13]) [µM] | cell viability (Vero E6 [14]; 1 nM) [%] | cell viability (Vero E6 [14]; 10 nM) [%] | cell viability (Vero E6 [14]; 100 nM) [%] | cell viability (Vero E6 [14]; 1000 nM) [%] | cell viability (Vero E6 [14]; 10000 nM) [%] | drug sensitivity score (Vero E6 [15]) |
| --- | --- | --- | --- | --- | --- | --- | --- | --- | --- | --- | --- | --- | --- | --- | --- | --- | --- | --- | --- | --- | --- | --- | --- | --- | --- | --- | --- | --- | --- | --- | --- | --- | --- | --- | --- |
| C/C(=C\C(N)C(=O)O)CP(=O)(O)O (stereo unspecified) | > 10 | > 10 | > 10 | 102 | 110 | 97.5 | 90 | 101 | 101 | 96.3 | 97 | 97.1 | 104 | 95.9 | 98.3 | 104 | 96.2 | 101 | 0 | 0 | 0 |  |  |  |  |  |  |  |  |  |  |  |  |  |  |
| CS(=O)(=O)Nc1ccc(-c2coc3cc(OCc4cccc(C(=O)O)c4)ccc3c2=O)cc1 | > 10 | > 10 | > 10 | 94.9 | 97.6 | 97.7 | 97.1 | 101 | 97.8 | 99.1 | 107 | 105 | 103 | 108 | 90.4 | 96.2 | 101 | 103 | 0 | 0 | 0 | > 10 | 92.6 | 107 | 101 | 109 | 93.2 | 0 |  |  |  |  |  |  |  |
| CS(=O)(=O)c1cccc(CNc2nc(Nc3ccc4c(c3)CCC(=O)N4)ncc2C(F)(F)F)c1 | > 10 | 2.04 | > 10 | 94.6 | 101 | 95.3 | 96.6 | 85.5 | 98.3 | 97.6 | 93.7 | 92.4 | 46 | 108 | 99.5 | 101 | 88.2 | 88.5 | 0.3 | 4.2 | 0.5 |  | 104 | 111 | 94.4 | 94.9 | 50.2 | 3.5 | > 10 | 103 | 96.9 | 99.1 | 87 | 78.8 | 1.8 |
| Cc1ccc2c(N3CCN(CCc4cccc(N5CCNC5=O)c4)CC3)cccc2n1 | > 10 | > 10 | > 10 | 104 | 98 | 93.9 | 101 | 96 | 101 | 101 | 101 | 95.5 | 97.7 | 93.6 | 94.8 | 108 | 99.2 | 97.6 | 0 | 0 | 0 |  | 96.1 | 98.6 | 89.2 | 92.8 | 73.5 | 1.7 | > 10 | 99.8 | 100 | 98.3 | 103 | 96.3 | 0 |
| O=C(Nc1cccnc1)c1cc(-c2ccnc(F)c2)ccc1OCc1ccccc1 | > 10 | > 10 | > 10 | 107 | 110 | 94.8 | 92 | 86.6 | 95.6 | 100 | 95.1 | 96.3 | 97.3 | 94.2 | 102 | 96.5 | 102 | 104 | 0.4 | 0 | 0 |  |  |  |  |  |  |  | > 10 | 99.3 | 101 | 97.8 | 98 | 95.2 | 0 |
| O=C1Nc2ccccc2C2(CCN(CCc3ccc(C(F)(F)F)cc3)CC2)O1 | > 10 | > 10 | > 10 | 93.3 | 97.2 | 94.7 | 99.2 | 78.6 | 100 | 94.9 | 99.8 | 94.7 | 91.2 | 99.7 | 98.7 | 102 | 108 | 82.4 | 0.8 | 0 | 0.2 |  | 97.7 | 96.2 | 88.8 | 100 | 58.1 | 2.1 | > 10 | 95.6 | 99 | 97.2 | 96.3 | 93.5 | 0 |
| Cc1nc[nH]c1CCN [4-methylhistamine] | > 10 | > 10 | > 10 | 91.9 | 95.1 | 99.2 | 100 | 101 | 95.1 | 99.5 | 104 | 98 | 104 | 89.5 | 101 | 107 | 88 | 99.2 | 0 | 0 | 0 | > 10 | 98.1 | 98.6 | 88.5 | 96.2 | 91.9 | 0 |  |  |  |  |  |  |  |
| Cc1ccc2c(=O)c3cccc(CC(=O)O)c3oc2c1C [ASA-404] | > 10 | > 10 | > 10 | 94.6 | 98.6 | 99 | 96 | 93.3 | 100 | 97.4 | 101 | 99.7 | 103 | 98 | 86.7 | 105 | 99.4 | 102 | 0 | 0 | 0 |  |  |  |  |  |  |  | > 10 | 102 | 106 | 102 | 108 | 97.6 | 0 |
| Nc1nc(-c2nn(Cc3ccccc3F)c3ncccc23)ncc1C1CC1 [BAY-41-2272] | > 10 | > 10 | > 10 | 86.5 | 90.5 | 94.1 | 100 | 93.8 | 90 | 96.6 | 93.9 | 101 | 105 | 100 | 108 | 91.7 | 104 | 110 | 0 | 0 | 0 |  | 95.8 | 103 | 95.8 | 104 | 69.2 | 1.1 |  | 102 | 96.1 | 97.3 | 86 | 66.7 | 2.9 |
| N#C/C(=C\c1ccc(O)cc1)C(=O)O [CHC] | > 10 | > 10 |  | 108 | 98.5 | 102 | 87.6 | 102 | 101 | 93.4 | 97.6 | 98.6 | 99.7 |  |  |  |  |  | 0 | 0 |  | > 10 | 106 | 99 | 102 | 98 | 98.8 | 0 |  |  |  |  |  |  |  |
| Fc1cccc(/C=N/N=C/c2cccc(F)c2)c1 [DFB] | > 10 |  | > 10 | 99.5 | 110 | 100 | 102 | 101 |  |  |  |  |  | 115 | 111 | 98.8 | 105 | 104 | 0 |  | 0 |  |  |  |  |  |  |  | > 10 | 99.9 | 98.7 | 90 | 97.3 | 98.6 | 0 |
| COc1ccc2c(c1)/C(=C/c1cnc[nH]1)C(=O)N2 [SU9516] | > 10 | > 10 | > 10 | 101 | 96 | 95.3 | 105 | 96.8 | 101 | 103 | 101 | 106 | 83.7 | 99.9 | 109 | 112 | 122 | 134 | 0 | 0.2 | 0 |  | 105 | 105 | 97.7 | 90.8 | 59.3 | 3.5 | > 10 | 97.4 | 99.4 | 95.3 | 104 | 79 | 0.5 |
| Nc1sc2c(c1C(=O)c1ccc(Cl)cc1)CCCC2 [T-62] | > 10 | > 10 |  | 93.7 | 99.3 | 88.8 | 92.4 | 90.8 | 98.5 | 101 | 100 | 101 | 98 |  |  |  |  |  | 0 | 0 |  | > 10 | 105 | 98 | 103 | 101 | 107 | 0 |  |  |  |  |  |  |  |
| CNc1nc(NCc2ccc(NS(C)(=O)=O)cc2Cl)cc(-c2ccccn2)n1 [TC-G-1008] | > 10 | > 10 | > 10 | 93.1 | 105 | 90.4 | 95.1 | 78.5 | 100 | 108 | 101 | 100 | 79 | 105 | 113 | 98.2 | 90 | 83.7 | 0.9 | 0.6 | 0.9 |  | 93.9 | 91.2 | 106 | 99.4 | 54.8 | 2.4 | > 10 | 105 | 106 | 98.3 | 101 | 81.5 | 0.4 |
| NC(=O)c1nc(Nc2ccccc2)sc1NC(=O)C1CCCCC1 [UNC3230] | > 10 | > 10 |  | 98.6 | 97.8 | 98 | 89.2 | 75.1 | 102 | 96.9 | 97.5 | 93.8 | 88.8 | 86.3 | 84.9 | 90.8 | 79 | 69.7 | 1.9 | 0 | 5.6 | > 10 | 96.6 | 104 | 88.1 | 104 | 88.5 | 0 |  | 99.1 | 92.6 | 98.1 | 99 | 70.8 | 1.4 |
| O=c1ncn2nc(Sc3ccc(F)cc3F)ccc2c1-c1c(Cl)cccc1Cl [VX-745] | > 10 | > 10 | > 10 | 107 | 96.5 | 104 | 99.7 | 82.6 | 102 | 108 | 98.4 | 94.9 | 87.9 | 97.1 | 107 | 98.7 | 82.9 | 95 | 0.4 | 0.1 | 2.1 |  |  |  |  |  |  |  | > 10 | 106 | 105 | 95.8 | 86.1 | 86.1 | 1.4 |
| CCOc1ccc2nc(SCCN3CCOCC3)[nH]c2c1 [afobazole] | > 10 |  | > 10 | 102 | 110 | 104 | 99.5 | 102 |  |  |  |  |  | 95.5 | 97.8 | 84.4 | 101 | 99.8 | 0 |  | 0 | > 10 | 112 | 101 | 107 | 99.5 | 103 | 0 |  |  |  |  |  |  |  |
